For series [1], the system named is co-culture model with Caco-2 and HT29-MTX. In words: 3D intestinal permeability assay (co-culture, HPLC-MS of basolateral samples). The format is in vitro ADME. As to conditions: for Permeability (%): 3D intestinal model, compound of kiwiberry leaf extract; for permeation in the 3D intestinal model: time not stated; for permeation (detection after the 3D intestinal permeation assay): aglycones, result in words. As for the experimental part: The intestinal permeability was carried out in a co-culture model with Caco-2 and HT29-MTX [40]. The extract was added to the apical side of the model. A sample from the basolateral side was collected at different timepoints (0, 15, 30, 45, 60, 90, 120, 150, 180, and 240 min). Samples were analyzed by HPLC-MS assay (Section 3.5). The TEER of the model was evaluated before, during and at the end of the permeability assay using an EVOM Epithelial Volthometer Instrument equipped with a chopstick electrode (World Precision Instruments, Sarasota, FL, USA).
The phenolic compounds that permeated the intestinal 3D model were identified and quantified according to Silva et al.. The samples were diluted 10 times with methanol-water (50:50) and centrifuged at 13,300× […] for 15 min. The supernatant was then transferred to a vial for the LC-MS analysis. The standard calibration curves were: • Chlorogenic acid titration curve: y = 198.01x + 20.138 (R^2 = 1) • Rutin titration curve: y = 58.564x + 41.752 (R^2 = 0.9998)
Regarding the multiple reaction monitoring (MRM), the values were: • Chlorogenic acid: 353.5 > 191.2 • Rutin: 609.4 > 301.3 • Coumaroyl quinic acid: 337.3 > 191.3

Series [2] can be described thus: Serum biochemical analysis (TC, HDL-C, LDL-C, TG) after 7 days oral treatment. Format: in vivo, Wistar rats. The following applies: 50 mg/kg bw oral once daily 7 days. As for the experimental part: (§1) The homogenate supernatants were analyzed by biochemical assays.
Serum was used to analyze the TC, HDL-C, and LDL-C using commercial kits from Sigma-Aldrich (Steinheim, Germany). TG levels were estimated in the blood serum through a commercial kit from Abcam (Cambridge, MA, USA).

In a further series the test system is SOD. The series can be described thus: In vivo antioxidant parameter: SOD activity in kidney, liver, serum. On the set-up: species or system Wistar rats. The following applies: 50 mg/kg bw oral once daily 7 days. The method, then:
as §1
(§2) The antioxidant enzyme activities, namely SOD, CAT, and GSH-Px, were evaluated in the homogenate supernatants from organs through commercial enzymatic kits from Sigma-Aldrich (Steinheim, Germany). The lipid peroxidation was determined through the determination of MDA levels using a commercial kit (Merck, Darmstadt, Germany).

A further series has as its system CAT. The series can be described thus: In vivo antioxidant parameter: CAT activity in kidney, liver, serum. On the set-up: species or system Wistar rats. As to conditions: 50 mg/kg bw oral once daily 7 days. As for the experimental part:
as §1, §2

The test system of a further series is GSH-Px. In words: In vivo antioxidant parameter: GSH-Px activity in kidney, liver, serum. Details: species or system Wistar rats. The following applies: 50 mg/kg bw oral once daily 7 days. The method, then: as §1, §2
In the next series the test system is MDA. The series can be described thus: Lipid peroxidation: MDA levels in kidney, liver, serum. The following applies: 50 mg/kg bw oral once daily 7 days. The format is in vivo, Wistar rats. As for the experimental part: as §1, §2
A further series has as its system kidney and liver tissues. In words: Histopathological analysis of kidney and liver (hematoxylin-eosin). The following applies: oral gavage once daily 7 days; extract 50 and 75 mg/kg bw, vitamin C 50 mg/kg bw.

Several values for one entry are separate records, joined by “and”; a condition that tells them apart may be missing. Identical values can stand only once. Marks after values point to notes of the source that are not given here.

Description for kidney and liver tissues: Young male Wistar rats of 5–6 weeks of age (140–207 g) were acquired from the Jackson Laboratory (Bar Harbor, ME, USA) and acclimatized in polypropylene cages to the environmental conditions (12 h dark/light cycle, controlled temperature (21 ± 2 °C), relative humidity (55 ± 10%) and fed ad libitum with standard pellet diet and water for 1 week before the experiment).
All groups were treated once daily for 7 days by oral gavage after a fasting period of 4 h. The body weight of each animal was recorded twice a week during the experimental period. Blood samples were collected from tail vein and a glucometer (Accu-Chek, Roche® Diabetes Care, Inc., Mississauga, QC, Canada) was used to measure the glucose levels.
After 7 days, the animals were sacrificed by pentobarbital overdose (50 mg/kg bw). The organs (liver and kidneys) were removed, and the blood was collected by cardiac puncture. Serum was separated by centrifugation (20,000× g, 15 min, 4 °C) and stored at −80 °C for biochemical analyses [42]. The organs were dissected from each animal and subsequently mixed with 50 mM potassium phosphate, pH 7.0, and centrifuged (20,000× g, 15 min, 4 °C), according to the kit manufacturer’s instructions. The homogenate supernatants were analyzed by biochemical assays.
The tissue samples (liver and kidney) were preserved in 10% formalin. […]

With `O=C(/C=C/c1ccc(O)c(O)c1)O[C@@H]1C[C@](O)(C(=O)O)C[C@@H](O)[C@H]1O` [Chlorogenic acid], the “Permeability (%)” value in series [1] (15 min) is “<LOD”; in series [1] (30 min) it was 1.79 ± 0.09%; in series [1] (45 min), “<LOD”; in series [1] (60 min), “<LOD”; in series [1] (90 min), “<LOD”; in series [1] (120 min) it was “<LOD”. The “Permeability (%)” value is reported as “<LOD” in series [1] (180 min); 2.49% in series [1] (240 min); 2.49 ± 0.13% in series [1] (240 min, listed as Chlorogenic Acid).
For `O=C(/C=C/c1ccc(O)cc1)O[C@@H]1C[C@](O)(C(=O)O)C[C@@H](O)[C@H]1O` [Coumaroyl quinic acid], the “Permeability (%)” value in series [1] (15 min) was found to be 1.04 ± 0.05%; in series [1] (30 min) it was 18.81 ± 0.94%; in series [1] (45 min), 7.99 ± 0.39%; in series [1] (60 min), 13.50 ± 0.68%; in series [1] (90 min) it was 19.74 ± 0.99%; in series [1] (120 min), 14.60 ± 0.73%. For the same compound, the “Permeability (%)” value in series [1] (180 min) was determined as 24.32 ± 1.22%; in series [1] (240 min), 34.23%; in series [1] (240 min, listed as Coumaroyl Quinic Acid) it was 34.23 ± 1.71%. The “permeation in the 3D intestinal model” value in series [1] is “higher than 25%”.
Take `C[C@@H]1O[C@@H](OC[C@H]2O[C@@H](Oc3c(-c4ccc(O)c(O)c4)oc4cc(O)cc(O)c4c3=O)[C@H](O)[C@@H](O)[C@@H]2O)[C@H](O)[C@H](O)[C@H]1O` [Rutin]: the “Permeability (%)” value in series [1] (15 min) worked out at 6.67 ± 0.33%; in series [1] (15 min, listed as rutin), 6.67%; in series [1] (30 min), 10.89 ± 0.54%; in series [1] (45 min), 17.01 ± 0.85%; in series [1] (60 min), 14.61 ± 0.73%; in series [1] (90 min), 14.56 ± 0.73%. Moreover, the “Permeability (%)” value in series [1] (120 min) is on record as 18.50 ± 0.93%; in series [1] (180 min), 18.30 ± 0.92%; in series [1] (240 min), 25.40 ± 1.27%; in series [1] (240 min, listed as rutin), 25.40%. Further, in series [1], the “permeation in the 3D intestinal model” value is reported as “higher than 25%”.
Turning to `O=c1c(O)c(-c2ccc(O)cc2)oc2cc(O)cc(O)c12` [kaempferol], the “permeation (detection after the 3D intestinal permeation assay)” value in series [1] is “absence of permeation”.
Same read-out and setting: under `O=c1c(O)c(-c2ccc(O)c(O)c2)oc2cc(O)cc(O)c12` [quercetin] stands “absence of permeation”.
Take `O=C1O[C@H]([C@@H](O)CO)C(O)=C1O` [vitamin C]: in series [2], the HDL-C was found to be 155.09 ± 37.71 mg/dL, the LDL-C is given as 76.24 ± 16.52 mg/dL and the TG is given as 229.76 ± 33.54 ^a mg/dL. In addition, the TC in series [2] (50 mg/kg) is 79.81 mg/dL and 79.81 ± 15.11 mg/dL. Further, in the series with SOD, the “SOD, Kidneys” value was 123.13 ± 19.27 ^b,c units/g protein; the “SOD, Liver” value is 83.71 ± 6.06 ^b units/g protein; the “SOD, Serum” value was 79.20 ± 5.76 ^b units/mL protein. Moreover, in the series with CAT, the “CAT, Kidneys” value is recorded as 427,496 ± 78,015 ^b nmol/min/g protein; the “CAT, Liver” value is 3,762,450 ± 434,242 ^c nmol/min/g protein; the “CAT, Serum” value is reported as 34,911 ± 7975 ^b nmol/min/mL protein. In the series with GSH-Px, the “GSH-Px, Kidneys” value was 136.66 ± 19.62 ^b units/g protein; the “GSH-Px, Liver” value is 71.34 ± 10.94 ^b,c units/g protein; the “GSH-Px, Serum” value is 20.16 ± 5.29 ^b units/mL protein. Moreover, in the series with MDA, the “MDA, Kidneys” value is 196,748 ± 31,125 ^a nmol/g protein; the “MDA, Liver” value is recorded as 145,827 ± 10,063 ^b nmol/g protein; the “MDA, Serum” value is listed as 746.79 ± 123.55 ^b nmol/mL protein. The “histopathological examination of kidneys” value in the series on kidney and liver tissues is listed as “did not lead to morphological alterations”.

These data come from publication PMC9692619, “Insights into the 3D In Vitro Permeability and In Vivo Antioxidant Protective Effects of Kiwiberry Leaf Extract: A Step Forward to Human Nutraceutical Use” (International Journal of Molecular Sciences, 2022).
